This is an account of results in US20220289794A1, “SYNTHETIC ANTIMICROBIAL PEPTIDES” (priority 2019, published 2022).

Usually MIC90 stands for the lowest concentration that inhibits either 90% of growth or 90% of the strains tested, depending on the study. What is called MIC99 is an inhibitory concentration at the 99% level, which refers to growth in some studies and to a panel of isolates in others.

In data set [1] the test system is Escherichia coli (E. Coli, ATCC 25922). The settings on record: Escherichia coli (ATCC 25922), antibiotic alone.
Data set [2] deals with MRSA (ATCC BAA-1556). As to conditions: MRSA (ATCC BAA-1556), antibiotic alone.
Data set [3] concerns Methicillin-resistant Staphylococcus aureus MRSA (ATCC BAA-1556). The experiment in a line: microbe, parasite or virus in culture. As to conditions: ATCCBAA1556|MRSA, 24 h, read-out: MRSA (ATCC BAA-1556) MIC, Table 31, [R5W4] (IFX-301), antibiotics alone and PHY-MIX (1:1 w/w).
Data set [4] deals with MRSA. The experiment in a line: In vivo Galleria Mellonella Assay (MRSA infection). As to conditions: MRSA-infected G. mellonella, after one week.
The test system of data set [5] is Escherichia coli (E. Coli, ATCC 25922). The experiment in a line: microbe, parasite or virus in culture. The settings on record: ATCC25922, 24 h, read-out: Escherichia coli (ATCC 25922) MIC, Table 31, [R5W4] (IFX-301), antibiotics alone and PHY-MIX (1:1 w/w).
Data set [6] relates to Pseudomonas aeruginosa (PSA, ATCC 27883). The experiment in a line: microbe, parasite or virus in culture. As to conditions: ATCC27883, 24 h.
Data set [7] has the same test system. The experiment in a line: Synergy checkerboard assay (FIC index). It counts as cell-based. As to conditions: Pseudomonas aeruginosa (ATCC 27883), antibiotic alone.
The subject of data set [8] is Clostridium difficile (NAP1/027). The experiment in a line: MIC determination, broth microdilution (CLSI). The format is cell-based.
For data set [9], the system named is Staphylococcus aureus ATCC 33592 (MRSA) biofilm.
Protocol: (§2) Bacteria. The bacterial strains employed in these assays were obtained from the American Type Culture Collection (ATCC). Each strain was propagated as recommended by the ATCC and each strain was stored as a frozen glycerol stock at −80° C.
(§3) Bacterial Propagation. […] Following the incubation, the culture was diluted to an optical density 625 nm (OD625) of 0.1 in cation adjusted Mueller Hinton Broth (CAMHB), which is equivalent to 1×10^8 CFU/mL. The culture was further diluted to 1×10^6 CFU/mL which was used for the assay.
(§4) Determination of the Temporal Effects of SPL7013 Addition to Inhibit Biofilm Formation. Each strain of bacteria was adjusted to a concentration of 1×10^6 CFU/mL and added to a 96-well flat-bottomed plate in a volume of 100 mL. One-hundred microliters (100 mL) of each compound at 10 concentrations was added in triplicate wells. The cultures were incubated for 24 hours at 37° C. under the appropriate growth conditions for each organism. Following the incubation, the media was removed, and the formed biofilms were fixed for 1 hour at 60° C. Two-hundred microliters (200 mL) of 0.06% crystal violet was added to the wells for 5 to 10 minutes and the wells were then gently washed three times with deionized H2O to remove the crystal violet. Following crystal violet staining 200 mL of 70% ethanol was added to the wells.
Data set [10] concerns human red blood cells. Also noted: unit not given beside the values.
In data set [11] the test system is Clostridium difficile (ATCC 700057). The experiment in a line: MIC determination, broth microdilution (CLSI). It counts as cell-based. Background: Dilution methods test growth across graded concentrations, often in twofold steps.
The subject of data set [12] is Pseudomonas aeruginosa (ATCC 27883). The settings on record: ATCC 27883.
Data set [13] concerns Methicillin-resistant Staphylococcus aureus MRSA (ATCC BAA-1556). The settings on record: ATCC BAA-1556.
In data set [14] the test system is P. aeruginosa strain ATCC 47085 biofilm.
Protocol: as §2, §3, §4
The test system of data set [15] is S. aureus ATCC 29213. As to conditions: ATCC 29213.
Data set [16] concerns Escherichia coli (ATCC 25922). As to conditions: ATCC 25922.
Data set [17] has as its system Pseudomonas aeruginosa (PA01). The settings on record: previously shown (Oh et al. 2014), listed as [W4R4]; cited from earlier work.
Data set [18] has as its system E. coli. As to conditions: cited from earlier work.
The subject of data set [19] is Methicillin-Resistant Staphylococcus aureus (MRSA). The settings on record: cited from earlier work.
In data set [20] the test system is Methicillin-resistant Staphylococcus aureus MRSA (ATCC BAA-1556). It counts as cell-based. An outline of the steps: (§1)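 MIC was taken as the lowest concentration inhibiting growth, judged by visual or spectrophotometric turbidity. MBC was the lowest concentration reducing viability of the initial inoculum by ≥99.9%. Strains were clinically reported multi-drug-resistant isolates.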

The subject of data set [21] is Klebsiella pneumoniae (ATCC BAA-1705). It counts as cell-based. In short, it runs like this:
as §1

The subject of data set [22] is Pseudomonas aeruginosa (ATCC 27883). It counts as cell-based. As to conditions: Table 22. An outline of the steps: as §1
The subject of data set [23] is Escherichia coli (ATCC 25922). The format is cell-based. An outline of the steps:
as §1

For data set [24], the system named is Klebsiella pneumoniae (ATCC BAA-1705). The settings on record: ATCC BAA-1705.
Data set [25] deals with Methicillin-Resistant Staphylococcus aureus (MRSA). The settings on record: previously shown (Oh et al. 2014), listed as [W4R4]; cited from earlier work.

The structures appear in SMILES notation. In brackets after ≈: the same amount, converted by molar mass. Several values for one entry are separate records, joined by “and”; a condition that tells them apart may be missing. Identical values can stand only once. Like-named read-outs stand apart in the source and are kept apart here. Non-standard residues stand in square brackets, D forms with d. Residues, ends and D or L forms follow the SMILES beside them. 2Nal = N[C@@H](Cc1ccc2ccccc2c1)C(=O)O

Take `CN(C)[C@@H]1C(O)=C(C(N)=O)C(=O)[C@@]2(O)C(O)=C3C(=O)c4c(O)cccc4[C@@](C)(O)[C@H]3C[C@@H]12` [tetracycline, reference compound]: the MIC of antibiotic was found to be 8 µg/mL in data set [1]; 8 µg/mL in data set [1] (Table 25); 8 µg/mL in [1] (Table 26); 0.25 µg/mL in data set [2]; 0.250 µg/mL in data set [2] (Table 25); 32 µg/mL in [7]. Also, the MIC of antibiotic in data set [7] (Table 26) was 32 µg/mL. Also, the MIC was 0.25 µg/mL (≈ 0.563 µM) in data set [3]; 8 µg/mL (≈ 18 µM) in data set [5]; 32 µg/mL (≈ 72 µM) in data set [6] (read-out: Pseudomonas aeruginosa (ATCC 27883) MIC, Table 29, [R6W4] (IFX-318), antibiotics alone and PHY-MIX (1:1 w/w)); 32 µg/mL (≈ 72 µM) in [6] (read-out: Pseudomonas aeruginosa (ATCC 27883) MIC, Table 31, [R5W4] (IFX-301), antibiotics alone and PHY-MIX (1:1 w/w)). The compound also showed a larvae killed in [4] of 56.3%. The antibiotic MIC in data set [7] (Table 27) stood at 32 µg/mL.

In data set [8], `N=C(N)NCCC[C@H](NC(=O)[C@H](CCCNC(=N)N)NC(=O)[C@H](CCCNC(=N)N)NC(=O)[C@@H](N)CCCNC(=N)N)C(=O)N[C@@H](Cc1ccc2ccccc2c1)C(=O)N[C@@H](Cc1ccc2ccccc2c1)C(=O)N[C@@H](Cc1c[nH]c2ccccc12)C(=O)O` [IFX-031-1, NH2-R-R-R-R-NaI-NaI-Trp-OH] (H-RRRR[2Nal][2Nal]W-OH) gave an MIC90 of 25 µg/mL (≈ 20.4 µM), an MIC95 of more than 50 µg/mL and an MIC99 of 25 µg/mL (≈ 20.4 µM). The “ability to prevent biofilm formation” value in data set [9] was “able to inhibit biofilm formation”. This compound gave an HC50 in [10] of 450. In data set [11], this compound yielded an MIC90 of 25 µg/mL (≈ 20.4 µM), an MIC95 of 25 µg/mL (≈ 20.4 µM) and an MIC99 of 25 µg/mL (≈ 20.4 µM). Moreover, the “MIC P. aeruginosa ATCC 27883” value in data set [12] was 25 µg/mL (≈ 20.4 µM). Also, the “MIC MRSA ATCC BAA-1556” value in data set [13] came out at 6.2 µg/mL (≈ 5.07 µM). Also, the “ability to prevent biofilm formation” value in data set [14] is recorded as “able to inhibit biofilm formation”. The “MIC S. aureus ATCC 29213” value in data set [15] is 6.2 µg/mL (≈ 5.07 µM). Moreover, the “MIC E. coli ATCC 25922” value in [16] turned out to be 25 µg/mL (≈ 20.4 µM).

Consider `N=C(N)NCCC[C@@H]1NC(=O)[C@H](CCCNC(=N)N)NC(=O)[C@H](CCCNC(=N)N)NC(=O)[C@H](Cc2c[nH]c3ccccc23)NC(=O)[C@H](Cc2c[nH]c3ccccc23)NC(=O)[C@H](Cc2c[nH]c3ccccc23)NC(=O)[C@H](Cc2c[nH]c3ccccc23)NC(=O)[C@H](CCCNC(=N)N)NC1=O` [[R4W4], reference compound] (cyclo(RRRRWWWW)), for which the MIC in data set [17] is 42.8 μg/mL and 31.3 μM; in data set [25] it was 2.67 μg/mL and 1.95 μM. Besides, the “PSA (ATCC 27883 MIC)” value in [12] was found to be 64 µg/mL. Besides, the “interaction with tetracycline in time-kill assays” value in [18] and in data set [19] was “synergistically” each time. In addition, the “MRSA (ATCC BAA-1556) MIC” value in data set [13] stood at 4 µg/mL. In data set [20], the “MRSA (ATCC BAA-1556) MBC” value turned out to be 32 µg/mL. For the same compound, the “KPC (ATCC BAA-1705) MBC” value in [21] worked out at 64 µg/mL. Moreover, in [22], the “PSA (ATCC 27883) MBC” value came to 128 µg/mL. The “E. coli (ATCC 25922) MBC” value in data set [23] worked out at 32 µg/mL. The “KPC (ATCC BAA-1705) MIC” value in data set [24] was 32 µg/mL. For the same compound, the larvae killed result in [4] was “all”. In [16], the “E. coli (ATCC 25922) MIC” value worked out at 16 µg/mL.
